Source: publication PMC10412585 (Nature Communications, 2023)
“Also recorded” adds a separate entry of the source. Read-outs that look alike come from different tables or passages of the source.

What was measured:
Assay type in all cases: cell-based, human
HLA-E = HLA-E surface stabilization assay with RMA-S/HLA-E cells; details: peptide 3-300 µM (Fig. 3: 30 µM) in OptiMEM, 16 h, 37 °C, anti-HLA-E 3D12, flow cytometry, n = 4 replicate experiments
Description: To probe top-predicted proteome-derived peptides (Tables 2 and 3) for HLA-E binding, we assessed their ability to stabilize surface-expressed HLA-E on RMA-S/HLA-E cells, a TAP-deficient mouse cell line engineered to express HLA-E and human β2M (Fig. 3 and Supplemental Fig. 8)[47].
Fig. 3 Peptide stabilization of HLA-E surface expression. Assessment of peptide-HLA-E binding via HLA-E surface stabilization assay with RMA-S/HLA-E cells incubated with 30 μM peptide. HLA-E expression is detected with an anti-HLA-E antibody. Measurements from n = 4 replicate experiments are shown, with solid black lines indicating mean values. […] Source data are provided as a Source Data file.
RMA-S/HLA-E cells were incubated with serial dilutions of peptides (3–300 µM, Genscript) in OptiMEM (ThermoFisher) for 16 h at 37 °C. Cells were washed with PBS, stained for HLA-E (Clone 3D12, Biolegend, 1:200 dilution) for 15 min at room temperature and analyzed by flow cytometry (analysis in FlowJo version 10). Peptide UBAC2_275-279 was ordered as a 5mer peptide (WNRLF) given the similarity with other WN peptides and hypothesis of a truncated peptide binding in the HLA-E groove. […] Measurements from replicate experiments are plotted in Fig. 3 and Supplemental Fig. 8.

NKG2A+/NKG2C- NK cells = experiment: NK cell activation assay with peptide-pulsed K562/HLA-E cells, NKG2A+/NKG2C- NK cells; details: K562/HLA-E target cells, 300 µM peptide ([…] µM BFAR263-271), E:T 2:1, 6 h; degranulation (CD107a), IFN-γ, TNF, CCL3; flow cytometry
Description: (§1) We hypothesized that our predicted proteome-derived peptides could affect NK cell activation through interactions with CD94/NKG2A and CD94/NKG2C. To investigate, we performed cell-based activation assays on primary NK cells (Fig. 4A). NK cells were co-incubated with peptide-pulsed HLA-E-expressing K562 cells, as described previously. The parental K562 human myelogenous leukemia cell line is a typical target to measure NK cell cytotoxicity and activation, allowing for assessment of both NKG2A-mediated inhibition and NKG2C-mediated activation. […] NKG2A^-/NKG2C^- NK cells served as internal control as these should be unaffected by peptide-HLA-E complexes (Supplemental Fig. 12).
(§2) Fig. 4 NK cell stimulation assays. Assessment of effects of peptides on NK cell activity through incubation of NK cells, peptides, and (A) K562/HLA-E or (B) RMA-S/HLA-E target cells. […] Replicates for individual peptides are from different donors, with solid black lines indicating mean values. […] Representative gating for NKG2A^+/NKG2C^- and NKG2A^-/NKG2C^+ NK cells is shown in Supplemental Fig. 14. Source data are provided as a Source Data file.
(§3) All analyses of human data were carried out in compliance with the relevant ethical regulations. Healthy blood donors gave informed consent at DRK Blutspendedienst Nord-Ost, Dresden, Germany, and buffy coats were obtained as approved by Charité ethics committee (EA4/059/17). PBMCs were isolated from human CMV-seropositive buffy coats by density centrifugation over Ficoll Paque Plus (GE Healthcare) and screened for the presence of NKG2C^+ NK cell expansions by flow cytometry to have sufficient frequencies of single-positive cells for parallel assessment of activation and inhibition via HLA-E[47]. Total NK cells from donors with NKG2C^+ expansions (>10% NKG2A^-/NKG2C^+ NK cells) were enriched with CD56 microbeads (Miltenyi Biotec) and cryopreserved in FBS with 10% v/v DMSO. After thawing, NK cells were washed with complete medium, stained with antibodies and Fixable Viability Dye eFluor 780 (Thermo Fisher) for 15 min at 4 °C in PBS, sorted as viable CD56^+ CD3^− cells, and rested in complete media overnight. […] Brefeldin A and Monensin (BD Biosciences) were added after a 1 h culture period. After an additional 5 h, the stimulation was stopped by centrifugation at 4 °C. Cells underwent surface staining, followed by fixation and intracellular staining using Inside Stain Kit (Miltenyi Biotec). Samples were analyzed by flow cytometry on an LSR Fortessa (BD Biosciences). Inhibition of NKG2A^+ NK cells and activation of NKG2C^+ NK cells was assessed by gating on the respective single-positive populations (Supplemental Fig. 14). Antibodies are listed in Supplemental Table 1: anti-human CD56 PE/Dazzle 594 (1:200 dilution), CD3 APC-eFluor 780 (1:50 dilution), anti-human CD159a (NKG2A) Biotin REAfinity (1:50 dilution), anti-human CD159c (NKG2C) PE REAfinity (1:100 dilution), anti-human CD107a (LAMP-1) Alexa Fluor 488 (1:400 dilution), anti-human IFN-γ PE-Vio 770 REAfinity (1:50 dilution), anti-human TNF-α Brilliant Violet 605 (1:50 dilution), anti-human CCL3 (MIP-1α) REAfinity (1:25 dilution).

NKG2A-/NKG2C+ NK cells = experiment: NK cell activation assay with peptide-pulsed K562/HLA-E cells, NKG2A-/NKG2C+ NK cells; details: K562/HLA-E target cells, 300 µM peptide ([…] µM BFAR263-271), E:T 2:1, 6 h; degranulation (CD107a), IFN-γ, TNF, CCL3; flow cytometry
Description: as §1, §2, §3

NKG2C+ NK cells = experiment: NK cell activation assay with peptide-pulsed RMA-S/HLA-E cells; details: for average percent CD107a+: NKG2C+ NK cells with RMA-S/HLA-E cells, Fig. 4B, stated in author rebuttal
Description: as §2
In contrast to K562 cell lines which are targets for human NK cells, RMA-S cells (a TAP-deficient mouse cell line)[48] are inert to human NK cells and thus will not activate NK cells absent engagement of an activating receptor on the NK cells. […] We performed additional NK cell activation assays with RMA-S/HLA-E cells (Fig. 4B).
as §3

[1] = RMA-S/HLA-E target cells, 300 µM peptide ([…] µM BFAR263-271), E:T 2:1, 6 h, flow cytometry, n = 3 (n = 2 for some) donors

Substance	stabilization of HLA-E surface expression (HLA-E)	inhibitory effects on NKG2A+ cells (NKG2A+/NKG2C- NK cells)	activating effects on NKG2C+ cells (NKG2A-/NKG2C+ NK cells)	NKG2C-mediated NK cell activation (NKG2C+ NK cells)	average percent CD107a+ (NKG2C+ NK cells) [%]	NKG2C-mediated NK cell activation (NKG2C+ NK cells; [1])
WNRIL [length variant of WN peptide]	did not stabilize HLA-E surface					
WNRILP [length variant of WN peptide]	did not stabilize HLA-E surface					
VMADKSIFY [OR5D14_88-96, human peptide from Olfactory receptor 5D14]	no detectable binding; also recorded: no stabilizing effects					
TLPERTLYL [ECEL1_269-277, human peptide from Endothelin-converting enzyme-like 1]	HLA-E stabilization matching VMAPRTLFL peptide; also recorded: strong stabilization	strong inhibitory effects	strong activating effects	activation similar to the weaker positive control ([…]) or between the two positive controls		
TAPARTMFL [PISD55-63, human peptide from Phosphatidylserine decarboxylase proenzyme, mitochondrial]	strong binding that is weaker than VMAPRTLFL; also recorded: strong stabilization	minimal inhibitory effects	clear activating effects	detectable activation, though below both positive control examples	7.8	
FLPNRSLLF [SLC52A3_354-362, human peptide from Solute carrier family 52, riboflavin transporter, member 3]	strong binding that is weaker than VMAPRTLFL; also recorded: strong stabilization	more moderate inhibitory effects	strong activating effects	activation similar to the weaker positive control ([…]) or between the two positive controls		
WNRILPNA [length variant of WN peptide]	did not stabilize HLA-E surface					
VMPGRTLCF [TACR3_226-234, human peptide from Neuromedin-K receptor]	HLA-E stabilization matching VMAPRTLFL peptide; also recorded: strong stabilization	strong inhibitory effects	strong activating effects	activation similar to the weaker positive control ([…]) or between the two positive controls		
VMAPQSLLL [negative control peptide, reference compound]				Minimal activation	1.1	
WNRLF [UBAC2_275-279, UBAC2 peptide ordered and tested as a 5mer peptide (WNRLF)]	no detectable binding; also recorded: no stabilizing effects					
TGAARSFFF [UL102_292-300, CMV peptide from DNA helicase/primase complex-associated protein]	no detectable binding; also recorded: no stabilizing effects					
VMAPRTLIL [canonical signal peptide / CMV UL40-derived HLA-E ligand; positive control, reference compound]						weaker positive control
ILTDRSLWL [FBXO41_670-678, human peptide from F-box only protein 41]	strong binding that is weaker than VMAPRTLFL; also recorded: strong stabilization	more moderate inhibitory effects	strong activating effects			activation at the level of the strongest positive control binder (VMAPRTLFL)
SVPLKTRFL [UL120_71-79, BE/33/2010, divergent UL120 peptide of CMV strain BE/33/2010]	weaker but detectable stabilization	minimal effects	minimal effects			
WNRILPNAY [library-derived WN 9mer peptide (P1 Trp, P2 Asn)]	did not stabilize HLA-E surface					
TLPKRGLFL [AKAP6_388-396, human peptide from A-kinase anchor protein 6]	strong binding that is weaker than VMAPRTLFL; also recorded: strong stabilization	more moderate inhibitory effects	strong activating effects			activation at the level of the strongest positive control binder (VMAPRTLFL)
RMPPRSVLL [INTS1_260-268, human peptide from Integrator complex subunit 1]	HLA-E stabilization matching VMAPRTLFL peptide; also recorded: strong stabilization	strong inhibitory effects	strong activating effects			
NMPARTVLF [MTREX490-498, human peptide from Exosome RNA helicase MTR4]	strong binding that is weaker than VMAPRTLFL; also recorded: strong stabilization	strong inhibitory effects	strong activating effects			detectable activation, though below both positive control examples
WNRILPN [length variant of WN peptide]	did not stabilize HLA-E surface					
VMPPRTLLL [HLA-A3-11, human peptide from HLA class I histocompatibility antigen]	HLA-E stabilization matching VMAPRTLFL peptide; also recorded: strong stabilization	strong inhibitory effects	strong activating effects	activation similar to the weaker positive control ([…]) or between the two positive controls		
VMGDRSVLY [EMC1_725-733, human peptide from ER membrane protein complex subunit 1]	no detectable binding; also recorded: no stabilizing effects					
